Results as given in US11639325B2, “Compositions of polyhydroxylated benzophenones and methods of treatment of neurodegenerative disorders” (Massachusetts Institute of Technology, priority 2015, dated 2023).
Entries after “also recorded” stand apart in the source; their conditions may differ. Where two headings read alike, the source gives them in different places.

Legend:
[1] = test system: Human induced pluripotent stem cell (iPSC)-derived neurons; experiment: Viability (Alamar Blue) of human iPSC-derived neurons under rotenone stress; format: cell-based
Excerpt: To further determine the effects of exifone on neurodegenerative disorders like frontotemporal dementia, Alzheimer's disease, and Parkinson's disease, a cellular model of mitochondrial dysfunction and tauopathy was used. Human induced pluripotent stem cell (iPSC)-derived neurons from a healthy control (FIG. 15A) and a frontotemporal dementia patient with a mutation in tau (FIG. 15B) were differentiated in culture for eight weeks (See Silva et al., Stem Cell Reports, 2016). […] Cell viability was measured by Alamar Blue (4 h) assay±SD. Statistical Analysis: Student T-Test; ^nsP>0.05, *P<0.05, **P<0.01, ***P<0.001; n=2 and technical triplicates.

5XFAD mice [2] = experiment: Western blotting of hippocampi of treated 5XFAD mice (histone deacetylation); format: in vivo, mouse; details: 50 mg/kg i.p. for 2 weeks
Protocol: To determine the effects of restoration of HDAC1 activity in 5XFAD mice, mice were treated with exifone. Briefly, eight-month-old mice were administered doses of 50 mg/kg body weight exifone or vehicle control (10% DMSO, 10% Tween-80 and 80% saline) by intraperitoneal injection for 2 weeks. After 2 weeks of treatment, hippocampi were dissected and homogenized in RIPA buffer for Western blotting (FIGS. 10B and 10C).

HDAC2 = molecular target: T1, HDAC2 (Homo sapiens, UniProt Q92769); experiment: RapidFire Mass Spec assay of HDAC2 deacetylase activity; format: biochemical; details: FIG. 4; read-out: EC50 for HDAC2 activation
T1 construct: purchased BPS Biosciences (San Diego, Calif.)
T1 sequence (Q92769 whole entry): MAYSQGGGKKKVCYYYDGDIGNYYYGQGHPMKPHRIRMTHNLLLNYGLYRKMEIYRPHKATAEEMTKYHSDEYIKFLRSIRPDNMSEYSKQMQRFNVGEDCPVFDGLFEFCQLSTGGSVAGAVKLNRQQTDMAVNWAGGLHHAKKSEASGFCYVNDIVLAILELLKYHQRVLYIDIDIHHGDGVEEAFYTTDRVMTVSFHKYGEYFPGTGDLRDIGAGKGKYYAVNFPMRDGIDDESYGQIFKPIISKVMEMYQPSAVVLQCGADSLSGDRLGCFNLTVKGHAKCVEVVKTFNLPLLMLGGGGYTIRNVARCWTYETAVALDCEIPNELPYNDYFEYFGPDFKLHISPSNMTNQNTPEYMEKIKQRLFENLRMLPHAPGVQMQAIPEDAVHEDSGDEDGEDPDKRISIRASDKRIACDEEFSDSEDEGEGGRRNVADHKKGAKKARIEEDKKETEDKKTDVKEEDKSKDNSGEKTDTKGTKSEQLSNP
Protocol: (§1) Bio-H4K12ac and Bio-p53K382ac peptides were purchased from Anaspec (Fremont, Calif.). Recombinant HDAC1 and HDAC2 were from BPS Biosciences (San Diego, Calif.). Biochemical assays for evaluation of enzyme activity were performed in 384-well microplates (Perkin Elmer, Waltham, Mass.). A high throughput mass spectrometry assay based on RapidFire™ platform (Agilent Technology, Wakefield, Mass.) was used for analysis of HDAC activity with acetylated peptide substrates derived from histone Bio-H4K12ac (Anaspec #64849) and non-histone Bio-p53K382ac (Anaspec #65046) sequences.
For determination of dose dependence curves, test compounds were preincubated with HDAC1 for 15 minutes. […]
For Mass Spec based detection, assay plates were transferred onto a high throughput RapidFire200 integrated autosampler/solid-phase extraction (SPE) system (Agilent Technologies, Wakefield, Mass.) coupled to an API4000 triple quadrupole mass spectrometer (Applied Biosystems, Concord, Ontario, Canada). […] The peaks detected by Mass Spec were integrated and processed with RapidFire peak integration software (Agilent).
Percentage of substrate conversion was estimated from the RapidFire HTMS assay as a function of product and substrate mass spectrum peak areas and is equal to 100*[Product/(Product+Substrate)]. […] MAX and MIN values were calculated from an average of 16 wells of a single column of 384 well plate. […]

CK-p25 mice = experiment: CK-p25 mouse model of neurodegeneration: immunohistochemistry and fear conditioning; format: in vivo
Protocol: (§2) For contextual fear conditioning, mice were put in the conditioning chamber (TSE systems) for 3 min, after which they received a one-time footshock (2 s, 0.8 mA). After 24 hr in the home cage, mice were placed in the same chamber and the freezing bouts, defined as a total lack of movement except for a heartbeat and respiration, were scored during every 10 s during a 3 min period.
(§3) Cued fear conditioning was performed by placing the animals in the test chamber for 3 min following exposure to the auditory cue (30 s, 20 kHz, 75 db sound pressure level) and a foot shock (2 s, 0.8 mA). Associative learning was assessed 24 hr later by placing the mice in the modified chamber and delivery of the identical auditory cue for 3 min.
CK-p25 mice are characterized by massive neuronal loss and severe memory impairment after 6 weeks of the p25 transgene induction (Cruz et al. Aberrant Cdk5 activation by p25 triggers pathological events leading to neurodegeneration and neurofibrillary tangles. Neuron. 2003 Oct. 30; 40(3):471-83). Exifone was chronically administered in CK-p25 mice, model, 3-month-old CK-p25 mice and control mice (no p25 overexpression) were induced for 6 weeks. They received either daily Exifone or vehicle for 3 weeks from week 3 to 6 during the induction period (FIG. 8A).
The associative memory in mice was examined by the contextual fear conditioning test described in Example 3. Mice were treated with vehicle control or exifone and freezing behavior observed 24 hours after contextual fear conditioning training.

HDAC1 = molecular target: T2, HDAC1 (Homo sapiens, UniProt Q13547); experiment: RapidFire Mass Spec assay of HDAC1 deacetylase activity with acetylated peptide substrates; format: biochemical; details: for HDAC1 activation (deacetylase activity): Bio-H4K12ac and bio-p53K382ac peptide substrates; for reversal of HDAC1 inhibition by CI-994: HDAC1 preincubated with exifone 1 or 10 μM, or with CI-994 1, 5 or 10 μM for 2 hours
T2 construct: purchased BPS Biosciences (San Diego, Calif.)
T2 sequence (Q13547 whole entry): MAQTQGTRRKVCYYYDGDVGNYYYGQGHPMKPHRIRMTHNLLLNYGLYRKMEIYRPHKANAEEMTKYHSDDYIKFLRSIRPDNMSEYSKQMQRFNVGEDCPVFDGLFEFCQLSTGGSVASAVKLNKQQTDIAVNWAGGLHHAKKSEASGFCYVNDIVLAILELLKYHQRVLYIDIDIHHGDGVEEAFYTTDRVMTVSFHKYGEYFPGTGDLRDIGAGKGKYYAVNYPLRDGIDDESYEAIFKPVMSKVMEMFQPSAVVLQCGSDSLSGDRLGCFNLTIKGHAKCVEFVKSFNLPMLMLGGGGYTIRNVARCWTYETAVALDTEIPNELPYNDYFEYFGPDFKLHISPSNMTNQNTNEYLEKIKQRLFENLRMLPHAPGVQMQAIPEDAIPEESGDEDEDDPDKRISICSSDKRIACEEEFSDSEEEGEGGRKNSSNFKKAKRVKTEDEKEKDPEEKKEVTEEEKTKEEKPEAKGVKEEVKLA
Protocol: as §1
For determination of dose dependence curves, test compounds were preincubated with HDAC1 for 15 minutes. Histone deacetylase reactions were performed following addition of acetylated peptide substrate. The reactions were performed in standard 384-well plates in 50 μl volume with an assay buffer containing 50 mM Tris, pH 7.4, 100 mM KCl, and 0.01% Brij-35. Enzyme reactions were terminated by adding 5 μl of 10% formic acid. Experiments designed to determine the mechanism of action used a varied range of substrate and test compound concentrations. For determining the dose response of individual compounds, HDAC1 reactions were performed with 1 μM of the acetylated peptide substrate for durations ranging from 45 mins for Bio-p53K382ac and 60 minutes for Bio-H4K12ac, with the aim of keeping the substrate conversion below 10%.
For Mass Spec based detection, assay plates were transferred onto a high throughput RapidFire200 integrated autosampler/solid-phase extraction (SPE) system (Agilent Technologies, Wakefield, Mass.) coupled to an API4000 triple quadrupole mass spectrometer (Applied Biosystems, Concord, Ontario, Canada). Additional details for the RapidFire MS analysis are described elsewhere (Rye et al. Advances in label-free screening approaches for studying sirtuin-mediated deacetylation. J Biomol Screen. 2011 December; 16(10):1217-26; Rye et al. Advances in label-free screening approaches for studying histone acetyltransferases. J Biomol Screen. 2011 December; 16(10):1186-95). The peaks detected by Mass Spec were integrated and processed with RapidFire peak integration software (Agilent).
Percentage of substrate conversion was estimated from the RapidFire HTMS assay as a function of product and substrate mass spectrum peak areas and is equal to 100*[Product/(Product+Substrate)]. Percentage of enzyme activation=[(MIN-test compound)/(MIN−MAX)*100], where MINimal (0%) enzyme activity is observed in the presence of a histone deacetylase inhibitor [10 μM SAHA (suberoylanilide hydroxamic acid), SAHA; Vorinostat] and MAXimal enzyme activity of HDAC1 reaction in absence of test compound as 100% activity. MAX and MIN values were calculated from an average of 16 wells of a single column of 384 well plate. Data were analyzed and plotted using Graphpad Prism 6.
Activator potencies were compared by estimating the EC^1.5 values as a function of EC50 values and maximum relative velocity (RVmax) (Dai et al, 2010). EC^1.5 is the concentration of the activator required to achieve 1.5 fold activation (Dai et al, 2010). Data on enzyme activation were analyzed using non-essential enzyme activation (Segel, (1975) Enzyme Kinetics, John Wiley, New York).

5XFAD mice [3] = experiment: 5XFAD mice behavioral tests (open field, contextual and cued fear conditioning); format: in vivo, mouse; details: 50 mg/kg i.p. for 2 weeks
Protocol: 8-month-old males (WT or 5XFAD mice) received daily for two weeks of full treatment either vehicle (80% saline, 10% DMSO, 10% Tween-80) or exifone (FIG. 1A) (50 mg/kg). Administration was by intraperitoneal injection for 2 weeks. After 2 weeks of treatment, mice were handled more than 3 days before each behavioral test.
Open field test was monitored by TSE Multi Conditioning System, total distance traveled and the number of visits in center were measured using automated activity monitors.
To assess memory formation, fear-conditioning tests in rodents were used. In these paradigms, the extent of freezing behavior, which is defined as the complete lack of movement other than from respiration upon re-exposure to an aversive stimulus (e.g. mild foot shock) and an environmental cue in the form of a specific context (e.g. test chamber) or cue (e.g. a tone), provides an assessment of the strength of memory. […]
as §2, §3
Behavioral tests were performed on vehicle treated wild type (WT) mice and 5XFAD mice treated with either vehicle control or exifone. […] In both contexts, freezing behavior of the mice was scored for examination memory.

5XFAD mice [4] = experiment: LTP recording in hippocampal slices of treated 5XFAD mice; format: in vivo, mouse; details: thirteen-month-old 5XFAD mice, 50 mg/kg i.p. for 2 weeks
Protocol: Thirteen-month-old mice were administered doses of 50 mg per kg body weight exifone or vehicle by intraperitoneal injection for 2 weeks before long-term potentiation (LTP) recordings. For LTP recording, mice were anesthetized with isoflurane and decapitated. Transverse hippocampal slices (400 μm thick) were prepared in ice-cold dissection buffer (in mM: 211 sucrose, 3.3 KCl, 1.3 NaH2PO4, 0.5 CaCl2, 10 MgCl2, 26 NaHCO3 and 11 glucose) using a Leica VT1000S vibratome (Leica). Slices were recovered in a submerged chamber with 95% O2/5% CO2-saturated artificial cerebrospinal fluid (ACSF) consisting of (in mM) 124 NaCl, 3.3 KCl, 1.3 NaH2PO4, 2.5 CaCl2, 1.5 MgCl2, 26 NaHCO3 and 11 glucose for 1 h at 28-30° C. For extracellular LTP recording, CA1 field potentials evoked by Schaffer collateral stimulation with bipolar electrode was measured every 30 s. After recording of stable baseline for 15 min, LTP was induced by single theta-burst stimulations (TBS, containing 10 brief bursts which consisted of four pulses at 100 Hz).

cultured neurons = experiment: Immunostaining for γH2AX (DNA double-stranded breaks) in cultured neurons; format: cell-based
[5] = AD mice model (CK-p25 mice) as printed
[6] = increasing exifone concentrations

For `C=C(C)[C@H]1Cc2c(ccc3c2O[C@@H]2COc4cc(OC)c(OC)cc4[C@@H]2C3=O)O1` [rotenone], the “decrease in viability of tauopathy patient-derived neurons” value ([1]; rotenone, 18 hour) was > 50%.
`O=C(c1cc(O)c(O)c(O)c1)c1ccc(O)c(O)c1O` [exifone] was tested, and the “rescue of viability of tauopathy patient-derived neurons from rotenone-induced stress” value ([1]; 8 hours pre-treatment, then 18 hour rotenone, multiple doses) was “rescued the vulnerability”, the “histone deacetylation and HDAC1 activity in hippocampus” value (5XFAD mice [2]) was “trend towards increased histone deacetylation and HDAC1 activity” and the EC50 (HDAC2) was 82 nM. For the same molecule, the “basal locomotion in the open-field test” value (CK-p25 mice; [5]) was “without an effect on basal locomotion”, the “cognitive function in cued fear-conditioning test” value (CK-p25 mice; [5]) was “not in cued fear-conditioning test” and the “freezing behavior / cognitive function in contextual fear conditioning test” value (CK-p25 mice; CK-p25 mice, 24 hours after training) was “enhances the cognitive function; also recorded: comparable freezing behavior to vehicle-treated or exifone-treated control mice”. For the same molecule, the “neuronal loss / markers of neurodegeneration (γH2A.X, NeuN, Hoechst) in hippocampus” value (CK-p25 mice; CK-p25 mice, daily for 3 weeks during p25 induction) was “significantly ameliorated neuronal loss; also recorded: significant reduction of these markers of neurodegeneration; also recorded: ameliorates neuronal loss”, the “maximal activation of HDAC1” value (HDAC1; 2 hour incubation of HDAC1 at room temperature prior to addition to reaction mix) was “up to nine fold” and the “HDAC1 activation (deacetylase activity)” value (HDAC1) was “dose-dependent increase in HDAC1 activation; also recorded: potent small molecule activator of HDAC1; also recorded: increases the deacetylase activity of HDAC1”. For the same molecule, the “selectivity for HDAC1 activation compared with HDAC2” value (HDAC1; FIG. 4) was “at least four fold more selective”, the EC50 (HDAC1; FIG. 4, read-out: EC50 for HDAC1 activation (selectivity experiment)) was 20 nM and the EC50 (HDAC1; FIGS. 1B and 1D, 2 hour incubation of HDAC1 at room temperature prior to addition to reaction mix, read-out: EC50 of HDAC1 activation) was 45 nM. The “reversal of HDAC1 inhibition by CI-994” value (HDAC1) was “capable of reversing inhibition”, the “reversal of HDAC1 inhibition by CI-994” value (HDAC1; listed as Exifone) was “partially reversed the inhibitory effect” and the “HDAC1 activation at high substrate concentration” value (HDAC1; bio-H4K12ac peptide concentrations of 125 and 250 μM) was “No activation was observed”. For the same molecule, the “Vmax of HDAC1 reaction” value (HDAC1; [6]) was “increased the Vmax”, the “apparent Km for the bio-H4K12ac peptide” value (HDAC1; [6]) was “decreased the apparent Km” and the “rate of HDAC1-mediated deacetylation (substrate conversion)” value (HDAC1; substrate 1 μM, HDAC1 40 nM, exifone 0.05 μM vs control) was “increased the rate of HDAC1-mediated reactions compared to control conditions; also recorded: increases the rate of deacetylation reaction by HDAC1”. The “mechanism of HDAC1 activation” value (HDAC1; varied substrate and activator concentrations) was “mixed non-essential reaction”, the “freezing response in conditioned (contextual) fear conditioning test” value (5XFAD mice [3]) was “significantly increased” and the “freezing response in cued fear conditioning test” value (5XFAD mice [3]) was “significantly increased”. For the same molecule, the “open-field total distance traveled and number of visits to the center” value (5XFAD mice [3]) was “no effect on either of these parameters”, the LTP induction (5XFAD mice [4]) was “reinstatement of LTP induction” and the “γH2AX intensity (DNA damage)” value (cultured neurons) was “significantly reduced the intensity of γH2AX; also recorded: protection from DNA damage”.
In the case of `O=C(c1ccccc1)c1ccccc1` [Benzophenone], the “HDAC1 activation (deacetylase activity)” value (HDAC1) is reported as “did not cause HDAC1 activation” and the “HDAC1 activation (deacetylase activity)” value (HDAC1; listed as non-hydroxylated benzophenone) is reported as “does not”.
